The values that follow come from BindingDB's records for PubMed 38943875 (Kurukshetra University).

By IC50 is commonly meant the concentration that gives 50% inhibition.

For the experiment, the target named is T1, Alpha-amylase 1A (Homo sapiens, UniProt P0DUB6).
T1 sequence (P0DUB6 whole entry): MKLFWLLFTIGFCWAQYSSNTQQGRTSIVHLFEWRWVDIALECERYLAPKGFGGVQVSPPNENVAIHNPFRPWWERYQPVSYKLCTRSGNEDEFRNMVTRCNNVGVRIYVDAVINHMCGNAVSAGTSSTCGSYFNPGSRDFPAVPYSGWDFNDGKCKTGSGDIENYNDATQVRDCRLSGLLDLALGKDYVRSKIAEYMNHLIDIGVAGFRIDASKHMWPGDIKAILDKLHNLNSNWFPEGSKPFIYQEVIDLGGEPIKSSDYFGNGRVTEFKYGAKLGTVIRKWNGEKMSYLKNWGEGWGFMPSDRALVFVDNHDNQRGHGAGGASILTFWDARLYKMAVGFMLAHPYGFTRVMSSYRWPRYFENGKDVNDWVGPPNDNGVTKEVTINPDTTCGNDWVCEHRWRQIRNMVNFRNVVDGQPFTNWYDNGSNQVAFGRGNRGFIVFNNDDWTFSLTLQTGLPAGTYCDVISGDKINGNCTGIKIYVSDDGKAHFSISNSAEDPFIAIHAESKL
Description: Inhibition of alpha-amylase (unknown origin) using 1% starch as substrate preincubated for 30 mins followed by substrate addition and measured after 30 mins by colorimetric analysis.
`CN(C)C=C1SC(=O)N(Cc2cn(-c3ccccc3)nn2)C1=O` displayed a concentration for half-maximal inhibition (IC50) of 99 µM.
On to `CN(C)C=C1SC(=O)N(Cc2cn(-c3ccc(Cl)cc3)nn2)C1=O`, for which 98 µM corresponded to half-maximal inhibition (IC50).
Take `CCCCn1cc(CN2C(=O)SC(=CN(C)C)C2=O)nn1`: 58 µM corresponded to half-maximal inhibition (IC50).
In the case of `CN(C)C=C1SC(=O)N(Cc2cn(-c3cccc(C(F)(F)F)c3)nn2)C1=O` it was 55 µM; in that of `COc1ccc(-n2cc(CN3C(=O)SC(=CN(C)C)C3=O)nn2)cc1`, 53 µM.
The same measure for `Cc1cc(C)cc(-n2cc(CN3C(=O)SC(=CN(C)C)C3=O)nn2)c1`: 66 µM.
Compound `CN(C)C=C1SC(=O)N(Cc2cn(Cc3ccc(Cl)cc3Cl)nn2)C1=O` yielded an IC50 of 45 µM.
In the case of `CN(C)C=C1SC(=O)N(Cc2cn(-c3ccccc3C(F)(F)F)nn2)C1=O`, the concentration for half-maximal inhibition (IC50) came to 48 µM.
In the case of `CN(C)C=C1SC(=O)N(Cc2cn(-c3ccc([N+](=O)[O-])cc3)nn2)C1=O` it was 59 µM; in that of `COc1ccccc1-n1cc(CN2C(=O)SC(=CN(C)C)C2=O)nn1`, 65 µM.
In the case of `Cc1cccc(-n2cc(CN3C(=O)SC(=CN(C)C)C3=O)nn2)c1` it was 61 µM; in that of `Cc1ccc(C)c(-n2cc(CN3C(=O)SC(=CN(C)C)C3=O)nn2)c1`, 93 µM; in that of `CN(C)C=C1SC(=O)N(Cc2cn(Cc3ccccc3)nn2)C1=O`, 80 µM.
With `CCc1ccc(-n2cc(CN3C(=O)SC(=CN(C)C)C3=O)nn2)cc1`, inhibition was half-maximal at 68 µM (IC50).
Regarding `CC(C)c1ccc(-n2cc(CN3C(=O)SC(=CN(C)C)C3=O)nn2)cc1`, the midpoint of inhibition, the IC50, lay at 54 µM.
In turn, `CCc1ccccc1-n1cc(CN2C(=O)SC(=CN(C)C)C2=O)nn1` registered an IC50 of 49 µM.
The same measure for `C#CCN1C(=O)SC(=CN(C)C)C1=O`: 139 µM.
Regarding `CN(C)C=C1SC(=O)N(Cc2cn(-c3cccc(Cl)c3Cl)nn2)C1=O`, it took 60 µM to reach half-maximal inhibition (IC50). Compared with the last compound, the IC50 is about 2.3-fold lower.
Turning to `COc1cccc(-n2cc(CN3C(=O)SC(=CN(C)C)C3=O)nn2)c1`, the IC50 amounted to 69 µM.
As for `Cc1ccc(-n2cc(CN3C(=O)SC(=CN(C)C)C3=O)nn2)c(C)c1`, it took 48 µM to reach half-maximal inhibition (IC50). The IC50 values of the last two compounds are within 1.5-fold of each other.
For `CN(C)C=C1SC(=O)N(Cc2cn(-c3cccc(Cl)c3)nn2)C1=O`, it took 66 µM to reach half-maximal inhibition (IC50). This IC50 and that of the compound before are within 1.5-fold of each other.
Take `CN(C)C=C1SC(=O)N(Cc2cn(-c3ccnc4cc(Cl)ccc34)nn2)C1=O`: the IC50 stood at 40 µM.
Compound `CN(C)C=C1SC(=O)N(Cc2cn(-c3ccccc3Cl)nn2)C1=O` yielded an IC50 of 91 µM.
In the case of `CN(C)C=C1SC(=O)N(Cc2cn(CC(=O)c3ccc(Br)cc3)nn2)C1=O` it was 78 µM; in that of `CN(C)C=C1SC(=O)N(Cc2cn(-c3ccc(C(F)(F)F)cc3)nn2)C1=O`, 84 µM; in that of `CN(C)C=C1SC(=O)N(Cc2cn(-c3ccc(F)cc3)nn2)C1=O`, 93 µM.
